Molecular target: HSP90 (Homo sapiens, UniProt P07900)
Assay: HSP90 inhibition (HSP90 IC50)
Format: biochemical

IC50	Structure (SMILES)
< 500 nM	NC(=O)c1ccc(N2C3CCC2CC(NC(=O)c2ccc(C(N)=O)c(N[C@H]4CC[C@H](O)CC4)c2)C3)nc1 (stereo partly drawn) [N4-{8-[5-(aminocarbonyl)pyridin-2-yl]-8-azabicyclo[3.2.1]oct-3-endo-yl}-2-[(4-hydroxycyclohexyl)amino]benzene-1,4-dicarboxamide]
2000 to 10000 nM	COc1cccc(C(=O)NC2CC3CCC(C2)N3c2ccc(C(=O)N[C@H]3CCC[C@@H]3OCc3ccccc3)cn2)c1C (stereo partly drawn) [6-[3-endo-({[2-methyl-3-(methyloxy)phenyl]carbonyl}amino)-8-azabicyclo[3.2.1]oct-8-yl]-N-{(1S,2S)-2-[(phenylmethyl)oxy]cyclopentyl}pyridine-3-carboxamide]
< 500 nM	Cc1cc(C(N)=O)c(NC(C)(C)C)cc1C(=O)N[C@H]1C[C@H]2CC[C@@H](C1)N2c1ccc(C(=O)C2CC2)cn1 [N-{8-[5-(cyclopropylcarbonyl)pyridin-2-yl]-8-azabicyclo[3.2.1]oct-3-endo-yl}-5-[(1,1-dimethylethyl)amino]-2-methylbenzene-1,4-dicarboxamide]
< 500 nM	COc1cccc(C(=O)NC2CC3CCC(C2)N3c2ccc(C(=O)N[C@@H](C)c3ccc(N4CCN(C)CC4)cc3)cn2)c1C (stereo partly drawn) [6-[3-endo-({[2-methyl-3-(methyloxy)phenyl]carbonyl}amino)-8-azabicyclo[3.2.1]oct-8-yl]-N-{(1S)-1-[4-(4-methylpiperazin-1-yl)phenyl]ethyl}pyridine-3-carboxamide]
< 500 nM	Cc1cc(C(N)=O)c(NCC(C)C)cc1C(=O)N[C@H]1C[C@H]2CC[C@@H](C1)N2c1ccc(C(=O)C2CC2)cn1 [N-{8-[5-(cyclopropylcarbonyl)pyridine-2-yl]-8-azabicyclo[3.2.1]oct-3-endo-yl}-2-methyl-5-[(2-methylpropyl)amino]benzene-1,4-dicarboxamide]
1000 to 2000 nM	COc1cccc(C(=O)NC2CC3CCC(C2)N3c2ccc(C(=O)N[C@@H]3CC4CCC3C4)cn2)c1C (stereo partly drawn) [N-[(1R,2R,4S)-bicyclo[2.2.1]hept-2-yl]-6-[3-endo-({[2-methyl-3-(methyloxy)phenyl]carbonyl}amino)-8-azabicyclo[3.2.1]oct-8-yl]pyridine-3-carboxamide]
< 500 nM	CCN(CC)CCOc1ccc(CNC(=O)c2ccc(N3[C@@H]4CC[C@H]3C[C@@H](NC(=O)c3cccc(OC)c3C)C4)nc2)cc1 [N-[(4-{[2-(diethylamino)ethyl]oxy}phenyl)methyl]-6-[3-endo-({[2-methyl-3-(methyloxy)phenyl]carbonyl}amino)-8-azabicyclo[3.2.1]oct-8-yl]pyridine-3-carboxamide]
500 to 999 nM	COc1cccc(C(=O)N[C@H]2C[C@H]3CC[C@@H](C2)N3c2ccc(C(=O)NCCCN3CCOCC3)cn2)c1C [6-[3-endo-({[2-methyl-3-(methyloxy)phenyl]carbonyl}amino)-8-azabicyclo[3.2.1]oct-8-yl]-N-(3-morpholin-4-ylpropyl)pyridine-3-carboxamide]
500 to 999 nM	NC(=O)c1ccc(C(=O)NC2CC3CCC(C2)N3c2ccc(C(=O)CC(O)c3ccccc3)cn2)cc1NCC1CC1 (stereo not drawn) [2-[(cyclopropylmethyl)amino]-N4-{8-[5-(3-hydroxy-3-phenylpropanoyl)pyridin-2-yl]-8-azabicyclo[3.2.1]oct-3-endo-yl}benzene-1,4-dicarboxamide]
< 500 nM	CC(=O)c1ccc(N2[C@@H]3CC[C@H]2C[C@@H](NC(=O)c2ccc(C(N)=O)c(NCC(C)(C)C)c2)C3)nc1 [N4-[8-(5-acetylpyridin-2-y)-8-azabicyclo[3.2.1]oct-3-endo-yl]-2-[(2,2-dimethylpropyl)amino]benzene-1,4-dicarboxamide]
< 500 nM	CCC(Nc1cc(C(=O)N[C@H]2C[C@H]3CC[C@@H](C2)N3c2ccc(C(=O)C3CC3)cn2)c(C)cc1C(N)=O)C1CC1 (stereo partly drawn) [N-{8-(5-(cyclopropylcarbonyl)pyridin-2-yl]-8-azabicyclo[3.2.1]oct-3-endo-yl}-5-[(1-cyclopropylpropyl)amino]-2-methylbenzene-1,4-dicarboxamide]
< 500 nM	NC(=O)c1ccc(C(=O)N[C@H]2C[C@H]3CC[C@@H](C2)N3c2ccc(C(=O)C3CC3)cn2)cc1NCC1CC1 [N4-{8-[5-(cyclopropylcarbonyl)pyridin-2-yl]-8-azabicyclo[3.2.1]oct-3-endo-yl}-2-[(cyclopropylmethyl)amino]benzene-1,4-dicarboxamide]
< 500 nM	Cc1cc(CO)ccc1C(=O)N[C@H]1C[C@H]2CC[C@@H](C1)N2c1ccc(C(=O)NCc2cccnc2)cn1 [6-[3-endo-({[4-(hydroxymethyl)-2-methylphenyl]carbonyl}amino)-8-azabicyclo[3.2.1]oct-8-yl]-N-(pyridin-3-ylmethyl)pyridine-3-carboxamide]
< 500 nM	Cc1cc(C(=O)N[C@H]2C[C@H]3CC[C@@H](C2)N3c2ccc(C(N)=O)cn2)c(C)cc1C(N)=O [N-{8-[5-(aminocarbonyl)pyridin-2-yl]-8-azabicyclo[3.2.1]oct-3-endo-yl}-2,5-dimethylbenzene-1,4-dicarboxamide]
< 500 nM	COc1cccc(C(=O)N[C@H]2C[C@H]3CC[C@@H](C2)N3c2ccc(C(=O)NCc3cccc(N4CCN(C)CC4)c3)cn2)c1C [6-[3-endo-({[2-methyl-3-(methyloxy)phenyl]carbony}amino)-8-azabicyclo[3.2.1]oct-8-yl]-N-{[3-(4-methylpiperazin-1-yl)phenyl]methyl}pyridine-3-carboxamide]
< 500 nM	CCC(C)Oc1cc(C(=O)N[C@H]2C[C@H]3CC[C@@H](C2)N3c2ccc(C(=O)C3CC3)cn2)c(C)cc1C(N)=O (stereo partly drawn)
500 to 999 nM	COc1ccc(C(C)NC(=O)c2ccc(N3[C@@H]4CC[C@H]3C[C@@H](NC(=O)c3cccc(OC)c3C)C4)nc2)cc1OC (stereo partly drawn) [N-{1-[3,4-bis(methyloxy)phenyl]ethyl}-6-[3-endo-({[2-methyl-3-(methyloxy)phenyl]carbonyl}amino)-8-azabicyclo[3.2.1]oct-8-yl]pyridine-3-carboxamide]
< 500 nM	CC(=O)c1ccc(N2[C@@H]3CC[C@H]2C[C@@H](NC(=O)c2ccc(C(N)=O)c(Nc4ccccc4)c2)C3)nc1 [N4-[8-(5-acetylpyridin-2-yl)-8-azabicyclo[3.2.1]oct-3-endo-yl]-2-(phenylamino)benzene-1,4-dicarboxamide]
500 to 999 nM	CCN1CCC[C@H](NC(=O)c2ccc(N3C4CCC3CC(NC(=O)c3cc(C)c(C(N)=O)cc3C)C4)nc2)C1 (stereo partly drawn) [N-{8-[5-({[(3S)-1-ethylpiperidin-3-yl]amino}carbonyl)pyridin-2-yl]-8-azabicyclo[3.2.1]oct-3-endo-yl}-2 5-dimethylbenzene-1,4-dicarboxamide]
< 500 nM	CC(=O)c1ccc(N2[C@@H]3CC[C@H]2C[C@@H](NC(=O)c2ccc(C(N)=O)c(NC(C)C)c2)C3)nc1 [N4-[8-(5-acetylpyridin-2-yl)-8-azabicyclo[3.2.1]oct-3-endo-yl]-2-[(1-methylethyl)amino]benzene-1,4-dicarboxamide]
2000 to 10000 nM	CCCc1c(OC)cccc1C(=O)N[C@H]1C[C@H]2CC[C@@H](C1)N2c1ccc(C(=O)NCc2ccccc2)cn1 [6-[3-endo-({[3-(methyloxy)-2-propylphenyl]carbonyl}amino)-8-azabicyclo[3.2.1]oct-8-yl]-N-(phenylmethyl)pyridine-3-carboxamide]
500 to 999 nM	Cc1cc(C(=O)N[C@H]2C[C@H]3CC[C@@H](C2)N3c2ccc(C(=O)NC3CCN(C(C)C)CC3)cn2)c(C)cc1C(N)=O [2,5-dimethy˜-N-{8-[5-({[1-(1 methylethyl)piperidin-4-yl]amino}carbonyl)pyridin-2-yl]-8-azabicyclo[3.2.1]oct-3-endo-yl}benzene-1,4-dicarboxamide]
< 500 nM	COc1cccc(C(=O)N[C@H]2C[C@H]3CC[C@@H](C2)N3c2ccc(C(=O)NCc3ccc(N4CCN(C)CC4)cc3)cn2)c1C
500 to 999 nM	COc1cccc(C(=O)N[C@H]2C[C@H]3CC[C@@H](C2)N3c2ccc(C(=O)NCc3ccc(Cl)cc3)cn2)c1C [N-[(4-chlorophenyl)methyl]-6-[3-endo-({[2-methyl-3-(methyloxy)phenyl]carbonyl}amino)-8-azabicyclo[3.2.1]oct-8-yl]pyridine-3-carboxamide]
500 to 999 nM	NC(=O)c1ccc(C(=O)N[C@H]2C[C@H]3CC[C@@H](C2)N3c2ccc(C(=O)CCN3CCN(c4ccccc4)CC3)cn2)cc1NCC1CC1 [2-[(cyclopropylmethyl)amino]-N4-(8-{5-[3-(4-phenylpiperazin-1-yl)propanoyl]pyridin-2-yl}-8-azabicyclo[3.2.1]oct-3-endo-yl)benzene-1,4-dicarboxamide]
2000 to 10000 nM	COc1cccc(C(=O)N[C@H]2C[C@H]3CC[C@@H](C2)N3c2ccc(C(=O)NO)cn2)c1C [N-hydroxy-6-[3-endo-({[2-methyl-3-(methyloxy)phenyl]carbonyl}amino)-8-azabicyclo[3.2.1]oct-8-yl]pyridine-3-carboxamide]
< 500 nM	CC(C)N1CC[C@@H](NC(=O)c2ccc(N3C4CCC3CC(NC(=O)c3ccc(C(N)=O)c(N[C@H]5CC[C@H](O)CC5)c3)C4)nc2)C1 (stereo partly drawn) [2-[(4-trans-hydroxycyclohexyl)amino]-N4-{8-[5-({[1-(1-methylethyl)pyrrolidin-3-yl]amino}carbonyl)pyridin-2-yl]-8-azabicyclo[3.2.1]oct-3-endo-yl}benzene-1,4-dicarboxamide]
500 to 999 nM	COc1cccc(C(=O)N[C@H]2C[C@H]3CC[C@@H](C2)N3c2ccc(C(=O)NCc3cc(F)c(F)cc3F)cn2)c1C [6-[3-endo-({[2-methyl-3-(methyloxy)phenyl]carbonyl}amino)-8-azabicyclo[3.2.1]oct-8-yl]-N-[(2,4,5-trifluorophenyl)methyl]pyridine-3-carboxamide]
1000 to 2000 nM	COc1cccc(C(=O)N[C@H]2C[C@H]3CC[C@@H](C2)N3c2ccc(C(=O)NCCSC)cn2)c1C [6-[3-endo-({[2-methyl-3-(methyloxy)phenyl]carbonyl}amino)-8-azabicyclo[3.2.1]oct-8-yl]-N-[2-(methylthio)ethyl]pyridine-3-carboxamide]
< 500 nM	COc1cc(C(=O)NC2CC3CCC(C2)N3c2ccc(C(=O)N[C@@H](C)c3ccc(N4CCN(C)CC4)cc3)cn2)ccc1C(N)=O (stereo partly drawn) [2-(methyloxy)-N4-(8-{5-[({(1S)-1-[4-(4-methylpiperazin-1-yl)phenyl]ethyl}amino)carbonyl]pyridin-2-yl}-8-azabicyclo[3.2.1]oct-3-endo-yl)benzene-1,4-dicarboxamide]

— US8012956B2, “Tropane compounds” (Exelixis, Inc., priority 2007, dated 2011)
